Measured values: ChEMBL document CHEMBL5608163, “Structure modification of anoplin for fighting resistant bacteria” (Eur J Med Chem, 2024)
≈ marks a conversion by molar mass, not a printed value. Square brackets hold non-standard residues; d marks the D form. Peptide text beside a SMILES is read from it. * marks the point of attachment. Gly(N(CH2)2(3-indolyl)) = O=C(O)CNCCc1c[nH]c2ccccc12; N(1-naphthylmethyl)Gly = O=C(O)CNCc1cccc2ccccc12; NCyclohexylmethylGly = O=C(O)CNCC1CCCCC1; NMeR = CN[C@@H](CCCNC(=N)N)C(=O)O; Tridecanoyl = CCCCCCCCCCCCC(=O)*; NMeK = CN[C@@H](CCCCN)C(=O)O; N(iPr)Gly = CC(C)NCC(=O)O; Nonanoyl = CCCCCCCCC(=O)*; NBuGly = CCCCNCC(=O)O

Tests used:
Staphylococcus aureus [1] = assay: Antimicrobial activity against Staphylococcus aureus assessed as reduction in microbial growth by broth microdilution method; assay type: functional
Escherichia coli [2] = assay: Antimicrobial activity against Escherichia coli assessed as reduction in microbial growth by broth micro-dilution method; assay type: functional
Erythrocyte = assay: Hemolytic activity in mouse RBC; assay type: toxicity, cell-based
Escherichia coli [3] = assay: Antibacterial activity against Escherichia coli ATCC 25922 assessed as reduction in bacterial growth measured after 24 hrs by Mueller-Hinton broth based two-fold serial dilution method; assay type: functional
Staphylococcus aureus [4] = assay: Antibacterial activity against Staphylococcus aureus ATCC 25923 assessed as reduction in bacterial growth measured after 24 hrs by Mueller-Hinton broth based two-fold serial dilution method; assay type: functional
[5] = Hemolytic activity in mouse erythrocyte incubated for 1 hr by microplate reader analysis; assay type: toxicity, cell-based; conditions: erythrocytes
Staphylococcus aureus [6] = assay: Antibacterial activity against Staphylococcus aureus ATCC 25923 assessed as reduction in bacterial cell growth measured for 18 hrs by Mueller-Hinton broth based two-fold serial dilution method; assay type: functional
Escherichia coli [7] = assay: Antibacterial activity against Escherichia coli ATCC 25922 assessed as reduction in bacterial cell growth measured for 18 hrs by Mueller-Hinton broth based two-fold serial dilution method; assay type: functional
Pseudomonas aeruginosa = assay: Antibacterial activity against Pseudomonas aeruginosa ATCC 27853 assessed as reduction in bacterial cell growth measured for 18 hrs by Mueller-Hinton broth based two-fold serial dilution method; assay type: functional
Bacillus subtilis = assay: Antibacterial activity against Bacillus subtilis ATCC 23857 assessed as reduction in bacterial cell growth measured for 18 hrs by Mueller-Hinton broth based two-fold serial dilution method; assay type: functional
[8] = Hemolytic activity in mouse Red blood cells incubated for 1 hr by microplate reader assay; assay type: toxicity, cell-based, Erythrocyte; conditions: red blood cells
Klebsiella pneumoniae = assay: Antibacterial activity against Klebsiella pneumoniae ATCC 700603 assessed as reduction in bacterial cell growth measured for 18 hrs by Mueller-Hinton broth based two-fold serial dilution method; assay type: functional

CC[C@H](C)[C@H](NC(=O)[C@H](CCCNC(=N)N)NC(=O)[C@H](CCCCN)NC(=O)[C@H](CC(C)C)NC(=O)[C@H](CC(C)C)NC(=O)CNCc1cccc2ccccc12)C(=O)N[C@@H](CCCCN)C(=O)N[C@H](C(=O)N[C@@H](CC(C)C)C(=O)N[C@@H](CC(C)C)C(N)=O)[C@@H](C)O (H-[N(1-naphthylmethyl)Gly]LLKRIKTLL-NH2)
MIC (Staphylococcus aureus [1]): 25 µM
MIC (Escherichia coli [2]): 12.5 µM
HC10 (Erythrocyte): > 50 µM

CC(C)C[C@H](NC(=O)CN)C(=O)N[C@@H](CC(C)C)C(=O)N[C@@H](CCCCN)C(=O)N[C@@H](CCCNC(=N)N)C(N)=O (H-GLLKR-NH2)
MIC (Escherichia coli [3]): 53.2 µM (≈ 31.1 µg/mL)
MIC (Staphylococcus aureus [4]): > 53.2 µM

CC[C@H](C)[C@H](NC(=O)[C@H](CCCNC(=N)N)NC(=O)[C@H](CCCCN)NC(=O)[C@H](CC(C)C)NC(=O)[C@H](CC(C)C)NC(=O)CNC(C)C)C(=O)N[C@@H](CCCCN)C(=O)N[C@H](C(=O)N[C@@H](CC(C)C)C(=O)N[C@@H](CC(C)C)C(N)=O)[C@@H](C)O (H-[N(iPr)Gly]LLKRIKTLL-NH2)
MIC (Staphylococcus aureus [1]): > 100 µM
MIC (Escherichia coli [2]): > 100 µM
HC10 (Erythrocyte): > 50 µM

CC[C@H](C)[C@H](NC(=O)[C@H](CCCNC(=N)N)NC(=O)[C@H](CCCCN)NC(=O)[C@H](CC(C)C)NC(=O)[C@H](CC(C)C)NC(=O)CNCCc1c[nH]c2ccccc12)C(=O)N[C@@H](CCCCN)C(=O)N[C@H](C(=O)N[C@@H](CC(C)C)C(=O)N[C@@H](CC(C)C)C(N)=O)[C@@H](C)O (H-[Gly(N(CH2)2(3-indolyl))]LLKRIKTLL-NH2)
MIC (Staphylococcus aureus [1]): 50 µM
MIC (Escherichia coli [2]): 25 µM
HC10 (Erythrocyte): > 50 µM

CC[C@H](C)[C@H](NC(=O)[C@H](CCCNC(=N)N)NC(=O)[C@@H](N)CCCCN)C(=O)N[C@@H](CCCCN)C(=O)N[C@H](C(=O)N[C@@H](CC(C)C)C(=O)N[C@@H](CC(C)C)C(N)=O)[C@@H](C)O (H-KRIKTLL-NH2)
MIC (Escherichia coli [3]): 70.2 µM (≈ 61.1 µg/mL)
MIC (Staphylococcus aureus [4]): > 70.2 µM

CCCCCCCCCCCCC(=O)NCC(=O)N[C@@H](CC(C)C)C(=O)N[C@@H](CC(C)C)C(=O)N(C)[C@@H](CCCCN)C(=O)N[C@@H](CCCNC(=N)N)C(=O)N[C@H](C(=O)N(C)[C@@H](CCCCN)C(=O)N[C@H](C(=O)N[C@@H](CC(C)C)C(=O)N[C@@H](CC(C)C)C(N)=O)[C@@H](C)O)[C@@H](C)CC (Tridecanoyl-GLL[NMeK]RI[NMeK]TLL-NH2)
HC50 at 1 h [5]: 64 µM
MIC (Staphylococcus aureus [6]): 8 µM (≈ 11 µg/mL)
MIC (Escherichia coli [7]): 16 µM (≈ 22 µg/mL)
MIC (Pseudomonas aeruginosa): 8 µM (≈ 11 µg/mL)
MIC (Bacillus subtilis): 4 µM (≈ 5.51 µg/mL)
HC50 at 1 h [8]: 64 µM
MIC (Klebsiella pneumoniae): 64 µM (≈ 88.2 µg/mL)

CCCCNCC(=O)N[C@@H](CC(C)C)C(=O)N[C@@H](CC(C)C)C(=O)N[C@@H](CCCCN)C(=O)N[C@@H](CCCNC(=N)N)C(=O)N[C@H](C(=O)N[C@@H](CCCCN)C(=O)N[C@H](C(=O)N[C@@H](CC(C)C)C(=O)N[C@@H](CC(C)C)C(N)=O)[C@@H](C)O)[C@@H](C)CC (H-[NBuGly]LLKRIKTLL-NH2)
MIC (Staphylococcus aureus [1]): > 100 µM
MIC (Escherichia coli [2]): 100 µM
HC10 (Erythrocyte): > 50 µM

CCCCCCCCC(=O)NCC(=O)N[C@@H](CC(C)C)C(=O)N[C@@H](CC(C)C)C(=O)N(C)[C@@H](CCCCN)C(=O)N[C@@H](CCCNC(=N)N)C(=O)N[C@H](C(=O)N(C)[C@@H](CCCCN)C(=O)N[C@H](C(=O)N[C@@H](CC(C)C)C(=O)N[C@@H](CC(C)C)C(N)=O)[C@@H](C)O)[C@@H](C)CC (Nonanoyl-GLL[NMeK]RI[NMeK]TLL-NH2)
HC50 at 1 h [5]: > 256 µM
MIC (Staphylococcus aureus [6]): 128 µM (≈ 169 µg/mL)
MIC (Escherichia coli [7]): 128 µM (≈ 169 µg/mL)
MIC (Pseudomonas aeruginosa): 32 µM (≈ 42.3 µg/mL)
MIC (Bacillus subtilis): 16 µM (≈ 21.1 µg/mL)
HC50 at 1 h [8]: > 256 µM
MIC (Klebsiella pneumoniae): > 128 µM

CC[C@H](C)[C@H](NC(=O)[C@H](CCCNC(=N)N)NC(=O)[C@H](CCCCN)NC(=O)[C@H](CC(C)C)NC(=O)[C@@H](N)CC(C)C)C(=O)N[C@@H](CCCCN)C(=O)N[C@H](C(=O)N[C@@H](CC(C)C)C(=O)N[C@@H](CC(C)C)C(N)=O)[C@@H](C)O (H-LLKRIKTLL-NH2)
MIC (Escherichia coli [3]): 54.7 µM (≈ 60 µg/mL)
MIC (Staphylococcus aureus [4]): > 54.7 µM

CCCCCCCCCCCCC(=O)NCC(=O)N[C@@H](CC(C)C)C(=O)N[C@@H](CC(C)C)C(=O)N[C@@H](CCCCN)C(=O)N(C)[C@@H](CCCNC(=N)N)C(=O)N[C@H](C(=O)N(C)[C@@H](CCCCN)C(=O)N[C@H](C(=O)N[C@@H](CC(C)C)C(=O)N[C@@H](CC(C)C)C(N)=O)[C@@H](C)O)[C@@H](C)CC (Tridecanoyl-GLLK[NMeR]I[NMeK]TLL-NH2)
HC50 at 1 h [5]: 64 µM
MIC (Staphylococcus aureus [6]): 8 µM (≈ 11 µg/mL)
MIC (Escherichia coli [7]): 8 µM (≈ 11 µg/mL)
MIC (Pseudomonas aeruginosa): 8 µM (≈ 11 µg/mL)
MIC (Bacillus subtilis): 4 µM (≈ 5.51 µg/mL)
HC50 at 1 h [8]: 64 µM
MIC (Klebsiella pneumoniae): 32 µM (≈ 44.1 µg/mL)

CC[C@H](C)[C@H](NC(=O)[C@H](CCCNC(=N)N)NC(=O)[C@H](CCCCN)NC(=O)[C@H](CC(C)C)NC(=O)[C@H](CC(C)C)NC(=O)CNCC1CCCCC1)C(=O)N[C@@H](CCCCN)C(=O)N[C@H](C(=O)N[C@@H](CC(C)C)C(=O)N[C@@H](CC(C)C)C(N)=O)[C@@H](C)O (H-[NCyclohexylmethylGly]LLKRIKTLL-NH2)
MIC (Staphylococcus aureus [1]): 50 µM
MIC (Escherichia coli [2]): 25 µM
HC10 (Erythrocyte): > 50 µM
